Test results reported in article PMC6107187, “A novel homodimer laccase from Cerrena unicolor BBP6: Purification, characterization, and potential in dye decolorization and denim bleaching” (PLoS ONE, 2018).
Where two headings read alike, the source gives them in different places. Blank lines part the entries; values can stand above or below the compound they belong to.

How the values were obtained:
LacA [1] = settings: optimal pH 2.5 and temperature 60°C; 5–100 μM ABTS; apparent Km
LacA [2] = experiment: oxidation monitored at […] nm, Lineweaver-Burk; format: biochemical, Cerrena unicolor; settings: optimal pH 5.5 and temperature 80°C; 0.5–10 mM 2,6-DMP; apparent Km
LacA [3] = experiment: oxidation monitored at […] nm, Lineweaver-Burk; format: biochemical, Cerrena unicolor; settings: optimal pH 4.0 and temperature 80°C; 0.5–5 mM guaiacol; apparent Km
[4] = molecular target: Cerrena unicolor BBP6 laccase (LacA) (Cerrena unicolor BBP6); experiment: SEC; Superdex 200 Increase 10/300 GL, 10 mM phosphate buffer-140 mM NaCl (pH 7.4), 0.5 mL min^-1, room temperature; native mass compared with the subunit mass from SDS-PAGE

Km (LacA [1]): 49.1 µM
Compound: CCn1c(=NN=c2sc3cc(S(=O)(=O)O)ccc3n2CC)sc2cc(S(=O)(=O)O)ccc21 [ABTS]

Km (LacA [2]): 3430 µM
Compound: COc1cccc(OC)c1O [2,6-DMP]

Km (LacA [3]): 1240 µM
Compound: COc1ccccc1O [guaiacol]

stoichiometry N [4]: 2
Compound: Cerrena unicolor BBP6 laccase (LacA) (enzyme)
